# From US6358885B1, “Substituted phenylheterocyclic herbicides” (Mississippi State University, priority 1992, dated 2002)
# Columns and labels:
# barley [1] = assay: Test B preemergence/postemergence greenhouse plant response rating 0 to 10; type: in vivo, Hordeum vulgare; conditions: 0 to 10 scale
# Summary of the method: (§1)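 Test chemicals, dissolved in a non-phytotoxic solvent, were applied to soil at planting and, at the same time, over foliage of seedlings at the one to four leaf stage.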
# bedstraw = assay: as above; type: in vivo, Galium aparine; conditions: 0 to 10 scale
# Summary of the method: as §1
# cheatgrass = assay: as above; type: in vivo, Bromus secalinus; conditions: 0 to 10 scale
# Summary of the method: as §1
# cocklebur = assay: as above; type: in vivo, Xanthium pensylvanicum; conditions: 0 to 10 scale
# Summary of the method: as §1
# giant foxtail [2] = assay: as above; type: in vivo, Setaria faberii; conditions: 0 to 10 scale
# Summary of the method: as §1
# lambsquarters = assay: as above; type: in vivo, Chenopodium album; conditions: 0 to 10 scale
# Summary of the method: as §1
# morningglory [3] = assay: as above; type: in vivo, Ipomoea hederacea; conditions: 0 to 10 scale
# Summary of the method: as §1
# soybean [4] = assay: as above; type: in vivo, Glycine max; conditions: 0 to 10 scale
# Summary of the method: as §1
# velvetleaf = assay: as above; type: in vivo, Abutilon theophrasti; conditions: 0 to 10 scale
# Summary of the method: as §1
# barley [5] = assay: Test C preemergence/postemergence greenhouse plant response rating 0 to 100; type: in vivo, Hordeum vulgare; conditions: for Plant response rating Barley Igri: 62 g/ha, 0 to 100 scale
# Summary of the method: (§2)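 Compounds in non-phytotoxic solvent went onto sandy loam before emergence (seeded one day earlier) or onto plants at the one-to-four leaf stage. Duck salad was treated via flood water (~2.5 cm, maintained) over silt loam.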
# blackgrass = assay: as above; type: in vivo, Alopecurus myosuroides; conditions: for Plant response rating, Blackgrass: 62 g/ha, 0 to 100 scale
# Summary of the method: as §2
# chickweed = assay: as above; type: in vivo, Stellaria media; conditions: POSTEMERGENCE
# Summary of the method: as §2
# giant foxtail [6] = assay: as above; type: in vivo, Setaria faberii; conditions: for Plant response rating, Giant foxtail: 62 g/ha, 0 to 100 scale
# Summary of the method: as §2
# morningglory [7] = assay: as above; type: in vivo, Ipomoea hederacea; conditions: for Plant response rating, Morningglory: 62 g/ha, 0 to 100 scale
# Summary of the method: as §2
# rape = assay: as above; type: in vivo, Brassica napus; conditions: for Plant response rating, Rape: 62 g/ha, 0 to 100 scale
# Summary of the method: as §2
# sorghum = assay: as above; type: in vivo, Sorghum bicolor
# Summary of the method: as §2
# soybean [8] = assay: as above; type: in vivo, Glycine max
# Summary of the method: as §2
# rice = assay: Test C flood test plant response rating 0 to 100; type: in vivo, Oryza sativa
# Summary of the method: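 Compounds in non-phytotoxic solvent applied preemergence to sandy loam one day after planting, postemergence at the 1–4 leaf stage, or to ~2.5 cm floodwater over silt loam.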
# [9] = POSTEMERGENCE, 62 g/ha, 0 to 100 scale
compound,measurement,setting,value
CC(C)Oc1cc(-c2nn3c(c2Br)CCCC3)c(F)cc1Cl [Compound 38],"Plant response rating, Barley","barley [1]; POSTEMERGENCE, Rate 50 g/ha",4
same,"Plant response rating, Barley","barley [1]; POSTEMERGENCE, Rate 200 g/ha",6
same,"Plant response rating, Barley","barley [1]; PREEMERGENCE, Rate 50 g/ha",0
same,"Plant response rating, Barley","barley [1]; Rate 200 g/ha, PREEMERGENCE",1
same,"Plant response rating, Bedstraw","bedstraw; POSTEMERGENCE, Rate 200 g/ha",10
same,"Plant response rating, Bedstraw","bedstraw; PREEMERGENCE, Rate 50 g/ha",0
same,"Plant response rating, Bedstraw","bedstraw; Rate 200 g/ha, PREEMERGENCE",7
same,"Plant response rating, Cheatgrass","cheatgrass; POSTEMERGENCE, Rate 50 g/ha",4
same,"Plant response rating, Cheatgrass","cheatgrass; POSTEMERGENCE, Rate 200 g/ha",5
same,"Plant response rating, Cheatgrass","cheatgrass; PREEMERGENCE, Rate 50 g/ha",0
same,"Plant response rating, Cheatgrass","cheatgrass; Rate 200 g/ha, PREEMERGENCE",3
same,"Plant response rating, Cocklebur","cocklebur; POSTEMERGENCE, Rate 50 g/ha",8
same,"Plant response rating, Cocklebur","cocklebur; POSTEMERGENCE, Rate 200 g/ha",10
same,"Plant response rating, Cocklebur","cocklebur; PREEMERGENCE, Rate 50 g/ha",0
same,"Plant response rating, Cocklebur","cocklebur; Rate 200 g/ha, PREEMERGENCE",5
same,"Plant response rating, Giant foxtail","giant foxtail [2]; POSTEMERGENCE, Rate 50 g/ha",5
same,"Plant response rating, Giant foxtail","giant foxtail [2]; PREEMERGENCE, Rate 50 g/ha",2
same,"Plant response rating, Giant foxtail","giant foxtail [2]; Rate 200 g/ha, POSTEMERGENCE",7
same,"Plant response rating, Giant foxtail","giant foxtail [2]; Rate 200 g/ha, PREEMERGENCE",9
same,"Plant response rating, Lambsquarter","lambsquarters; POSTEMERGENCE, Rate 50 g/ha",10
same,"Plant response rating, Lambsquarter","lambsquarters; PREEMERGENCE, Rate 50 g/ha",10
same,"Plant response rating, Lambsquarter","lambsquarters; Rate 200 g/ha, POSTEMERGENCE",10
same,"Plant response rating, Lambsquarter","lambsquarters; Rate 200 g/ha, PREEMERGENCE",10
same,"Plant response rating, Morningglory","morningglory [3]; POSTEMERGENCE, Rate 50 g/ha",8
same,"Plant response rating, Morningglory","morningglory [3]; PREEMERGENCE, Rate 50 g/ha",0
same,"Plant response rating, Morningglory","morningglory [3]; Rate 200 g/ha, POSTEMERGENCE",9
same,"Plant response rating, Morningglory","morningglory [3]; Rate 200 g/ha, PREEMERGENCE",4
same,"Plant response rating, Soybean","soybean [4]; POSTEMERGENCE, Rate 50 g/ha",5
same,"Plant response rating, Soybean","soybean [4]; PREEMERGENCE, Rate 50 g/ha",0
same,"Plant response rating, Soybean","soybean [4]; Rate 200 g/ha, POSTEMERGENCE",7
same,"Plant response rating, Soybean","soybean [4]; Rate 200 g/ha, PREEMERGENCE",4
same,"Plant response rating, Velvetleaf","velvetleaf; POSTEMERGENCE, Rate 50 g/ha",6
same,"Plant response rating, Velvetleaf","velvetleaf; PREEMERGENCE, Rate 50 g/ha",0
same,"Plant response rating, Velvetleaf","velvetleaf; Rate 200 g/ha, POSTEMERGENCE",10
same,"Plant response rating, Velvetleaf","velvetleaf; Rate 200 g/ha, PREEMERGENCE",7
same,Plant response rating Barley Igri,barley [5]; POSTEMERGENCE,50
same,"Plant response rating (0 to 100), Barley Igri","barley [5]; POSTEMERGENCE, Rate 1 g/ha",10
same,Plant response rating Barley Igri,barley [5]; PREEMERGENCE,0
same,"Plant response rating (0 to 100), Barley Igri","barley [5]; PREEMERGENCE, Rate 1 g/ha",0
same,"Plant response rating (0 to 100), Barley Igri","barley [5]; PREEMERGENCE, Rate 4 g/ha",0
same,"Plant response rating (0 to 100), Barley Igri","barley [5]; Rate 4 g/ha, POSTEMERGENCE",30
same,"Plant response rating (0 to 100), Barley Igri","barley [5]; Rate 16 g/ha, POSTEMERGENCE",40
same,"Plant response rating (0 to 100), Barley Igri","barley [5]; Rate 16 g/ha, PREEMERGENCE",0
same,"Plant response rating, Blackgrass",blackgrass; POSTEMERGENCE,40
same,"Plant response rating (0 to 100), Blackgrass","blackgrass; POSTEMERGENCE, Rate 1 g/ha",10
same,"Plant response rating, Blackgrass",blackgrass; PREEMERGENCE,30
same,"Plant response rating (0 to 100), Blackgrass","blackgrass; PREEMERGENCE, Rate 1 g/ha",0
same,"Plant response rating (0 to 100), Blackgrass","blackgrass; PREEMERGENCE, Rate 4 g/ha",0
same,"Plant response rating (0 to 100), Blackgrass","blackgrass; Rate 4 g/ha, POSTEMERGENCE",10
same,"Plant response rating (0 to 100), Blackgrass","blackgrass; Rate 16 g/ha, POSTEMERGENCE",20
same,"Plant response rating (0 to 100), Blackgrass","blackgrass; Rate 16 g/ha, PREEMERGENCE",0
same,"Plant response rating, Chickweed","chickweed; 62 g/ha, 0 to 100 scale",30
same,"Plant response rating (0 to 100), Chickweed",chickweed; Rate 1 g/ha,0
same,"Plant response rating (0 to 100), Chickweed",chickweed; Rate 4 g/ha,10
same,"Plant response rating (0 to 100), Chickweed",chickweed; Rate 16 g/ha,20
same,"Plant response rating, Giant foxtail",giant foxtail [6]; POSTEMERGENCE,50
same,"Plant response rating (0 to 100), Giant foxtail","giant foxtail [6]; POSTEMERGENCE, Rate 1 g/ha",20
same,"Plant response rating (0 to 100), Giant foxtail","giant foxtail [6]; POSTEMERGENCE, Rate 4 g/ha",30
same,"Plant response rating, Giant foxtail",giant foxtail [6]; PREEMERGENCE,0
same,"Plant response rating (0 to 100), Giant foxtail","giant foxtail [6]; PREEMERGENCE, Rate 1 g/ha",0
same,"Plant response rating (0 to 100), Giant foxtail","giant foxtail [6]; PREEMERGENCE, Rate 4 g/ha",0
same,"Plant response rating (0 to 100), Giant foxtail","giant foxtail [6]; Rate 16 g/ha, POSTEMERGENCE",40
same,"Plant response rating (0 to 100), Giant foxtail","giant foxtail [6]; Rate 16 g/ha, PREEMERGENCE",0
same,"Plant response rating, Morningglory",morningglory [7]; POSTEMERGENCE,95
same,"Plant response rating (0 to 100), Morningglory","morningglory [7]; POSTEMERGENCE, Rate 1 g/ha",20
same,"Plant response rating (0 to 100), Morningglory","morningglory [7]; POSTEMERGENCE, Rate 4 g/ha",30
same,"Plant response rating, Morningglory",morningglory [7]; PREEMERGENCE,20
same,"Plant response rating (0 to 100), Morningglory","morningglory [7]; PREEMERGENCE, Rate 1 g/ha",0
same,"Plant response rating (0 to 100), Morningglory","morningglory [7]; PREEMERGENCE, Rate 4 g/ha",0
same,"Plant response rating (0 to 100), Morningglory","morningglory [7]; Rate 16 g/ha, POSTEMERGENCE",95
same,"Plant response rating (0 to 100), Morningglory","morningglory [7]; Rate 16 g/ha, PREEMERGENCE",0
same,"Plant response rating, Rape",rape; POSTEMERGENCE,80
same,"Plant response rating (0 to 100), Rape","rape; POSTEMERGENCE, Rate 1 g/ha",20
same,"Plant response rating (0 to 100), Rape","rape; POSTEMERGENCE, Rate 4 g/ha",30
same,"Plant response rating, Rape",rape; PREEMERGENCE,30
same,"Plant response rating (0 to 100), Rape","rape; PREEMERGENCE, Rate 1 g/ha",0
same,"Plant response rating (0 to 100), Rape","rape; PREEMERGENCE, Rate 4 g/ha",10
same,"Plant response rating (0 to 100), Rape","rape; Rate 16 g/ha, POSTEMERGENCE",40
same,"Plant response rating (0 to 100), Rape","rape; Rate 16 g/ha, PREEMERGENCE",20
same,"Plant response rating, Sorghum",sorghum; [9],70
same,"Plant response rating (0 to 100), Sorghum","sorghum; POSTEMERGENCE, Rate 1 g/ha",20
same,"Plant response rating (0 to 100), Sorghum","sorghum; POSTEMERGENCE, Rate 4 g/ha",30
same,"Plant response rating (0 to 100), Sorghum","sorghum; PREEMERGENCE, Rate 1 g/ha",0
same,"Plant response rating (0 to 100), Sorghum","sorghum; PREEMERGENCE, Rate 4 g/ha",0
same,"Plant response rating (0 to 100), Sorghum","sorghum; Rate 16 g/ha, POSTEMERGENCE",60
same,"Plant response rating (0 to 100), Sorghum","sorghum; Rate 16 g/ha, PREEMERGENCE",10
same,"Plant response rating, Soybean",soybean [8]; [9],60
same,"Plant response rating (0 to 100), Soybean","soybean [8]; POSTEMERGENCE, Rate 1 g/ha",20
same,"Plant response rating (0 to 100), Soybean","soybean [8]; POSTEMERGENCE, Rate 4 g/ha",20
same,"Plant response rating (0 to 100), Soybean","soybean [8]; PREEMERGENCE, Rate 1 g/ha",0
same,"Plant response rating (0 to 100), Soybean","soybean [8]; PREEMERGENCE, Rate 4 g/ha",0
same,"Plant response rating (0 to 100), Soybean","soybean [8]; Rate 16 g/ha, POSTEMERGENCE",40
same,"Plant response rating (0 to 100), Soybean","soybean [8]; Rate 16 g/ha, PREEMERGENCE",0
same,"Plant response rating (0 to 100), Rice Japonica","rice; POSTEMERGENCE section, flood test, Rate 1 g/ha",0
same,"Plant response rating (0 to 100), Rice Japonica","rice; POSTEMERGENCE section, flood test, Rate 4 g/ha",10
same,"Plant response rating (0 to 100), Rice Japonica","rice; Rate 16 g/ha, under POSTEMERGENCE head (flood test species)",10
same,Plant response rating Rice Japonica,"rice; flood test species listed under POSTEMERGENCE, 62 g/ha, 0 to 100 scale",30
